Assay results from US7879846B2, “Serine hydrolase inhibitors” (Kyorin Pharmaceutical Co.., Ltd., priority 2006, dated 2011).
“And” between values parts separate entries of the source, which are not always exact repeats. Equal entries are not always repeated. Structures can show the parent of a compound that is named as a salt.

How the values were obtained:
[1] = molecular target: T1, Human sputum neutrophil elastase (Homo sapiens, UniProt P08246); experiment: Inhibitor IC50 against human neutrophil elastase (fluorogenic MeOSuc-AAPV-AMC substrate); assay type: biochemical; conditions: 20 min preincubation, read-out: HNE IC50
T1 construct: purchased Elastin Products Co; host or cells: human sputum (natural source)
T1 sequence (P08246 30-247 limits assumed): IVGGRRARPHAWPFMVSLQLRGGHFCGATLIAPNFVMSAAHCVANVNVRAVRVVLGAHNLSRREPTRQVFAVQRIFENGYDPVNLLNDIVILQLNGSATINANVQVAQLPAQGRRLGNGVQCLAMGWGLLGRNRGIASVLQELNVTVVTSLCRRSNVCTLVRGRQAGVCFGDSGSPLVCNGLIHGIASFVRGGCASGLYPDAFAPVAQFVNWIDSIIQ
Method in brief: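 Enzyme from human sputum in 200 mM Tris pH 7.4 with 1 mg/ml BSA; MeOSuc-AAPV-AMC at 1×10^−4 M final. Reaction ran 20 min at room temperature, then quenched with 3% (v/v) acetic acid. IC50 from Hill fit of fluorescence versus inhibitor concentration.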

[2] = system: LPS-induced increase of lung permeability (Evan's blue dye leakage); experiment: Acute lung injury model (lung permeability assay); assay type: in vivo; conditions: male Wistar rats, intratracheal LPS, intravenous infusion 10 mg/kg/hr over 6 hours, Evan's blue dye content of lung
Protocol: Acute Lung Injury Model (Lung Permeability Assay)
Adult male Wistar rats (200-250 g) were anesthetized with an intraperitoneal of pentobarbital (30 mg/kg). Under the anesthesia, lipopolysaccharide (LPS) ([…]) or physiological saline (100 μL/animal) was intratracheally injected. Increase of lung permeability after LPS instillation was measured by Evan's blue dye (EBD) leakage from blood. EBD (40 mg/5 mL/kg) was administered via tail vein 5 hours after the LPS challenge. At 6 hours, animals were exsanguinated by cardiac puncture under deep anesthesia and the pulmonary vessels were perfused with 20 mL saline to ensure the removal of EBD from the vascular spaces. Lungs were removed and EBD was extracted in 6 mL formamide at 65° C. overnight. EBD content was determined by measuring absorbance at 620 nm using a spectrophotometer. The test compound was dissolved in saline with a small amount of 1 N HCl and continuously infused intravenously at a rate of 10 mg/kg/hr over 6 hours starting just after LPS challenge.

[3] = system: HNE-induced hemorrhage in the lung; experiment: Neutrophil elastase-induced lung hemorrhagic assay; assay type: in vivo; conditions: Mus musculus, iv, 10 mg/kg intravenously to male balb/c mice 10 min before intratracheal HNE, hemoglobin in BALF 3 h after HNE, vs vehicle-treated controls, read-out: % Inhibition in Murine Lung Hemorrhage Model @ 10 mg/kg
Text: Neutrophil Elastase-Induced Lung Hemorrhagic Assay
This in vivo assay is based on estimating the amount of hemorrhage in the lung following intratracheal administration of human neutrophil elastase (HNE). Hemorrhage is quantified by measuring the concentration of hemoglobin in the bronchoalveolar lavage fluid (BALF).
DMSO or saline served as vehicle controls. Mice were anesthetized with halothane and the trachea exposed by a small incision in the neck. Ten minutes after compound administration, mice received 7.5 units/animal of HNE (Elastin Products Co.) dissolved in […] saline. Three hours after HNE instillation, the animals were euthanized with an overdose of urethane. […] Triton X-100 was added to the collected BALF at a final concentration of 0.2% (v/v) to ensure cell disruption.

IC50 [1]	SMILES	further results
< 15 nM	CCc1cc(OC)cc2nc(-c3cccnc3N3CC[C@H](N(C)C)C3)oc(=O)c12 [Compound 132, 2-[2-((S)-3-Dimethylamino-pyrrolidin-1-yl)-pyridin-3-yl]-5-ethyl-7-methoxy-4H-benz[d][1,3]oxazin-4-one]	% Inhibition in the ALI model [2]: C (C>30)
61 to 150 nM	Cc1cccc2nc(-c3cccnc3N(C)C3CCN(C)C3)oc(=O)c12 (stereo not drawn) [Compound 53]	inhibition in vivo at 10 mg/kg [3]: 11 to 30%
16 to 60 nM	Cc1cccnc1-c1nc2cccc(Cl)c2c(=O)o1 [Compound 18]	inhibition in vivo at 10 mg/kg [3]: < 10%
> 150 nM	Cc1cccc2nc(-c3cccnc3N3CCN(C)C(C)C3)oc(=O)c12 (stereo not drawn) [Compound 50]	inhibition in vivo at 10 mg/kg [3]: 11 to 30%
61 to 150 nM	O=c1oc(-c2cccnc2Oc2ccc(F)cc2)nc2cccc(Cl)c12 [Compound 26]	inhibition in vivo at 10 mg/kg [3]: 11 to 30%
16 to 60 nM	Cc1cccc2nc(-c3cccnc3Oc3ccc(F)cc3)oc(=O)c12 [Compound 36]	inhibition in vivo at 10 mg/kg [3]: > 30%
16 to 60 nM	Cc1cccc2nc(-c3cccnc3Oc3ccc(Cl)cc3)oc(=O)c12 [Compound 21]	inhibition in vivo at 10 mg/kg [3]: < 10%
> 150 nM	Cc1cccc2nc(-c3ccccn3)oc(=O)c12 [Compound 4]	inhibition in vivo at 10 mg/kg [3]: > 30%
61 to 150 nM	Cc1cccc2nc(-c3cccnc3N3CCCC(N(C)C)C3)oc(=O)c12 (stereo not drawn) [Compound 49]	inhibition in vivo at 10 mg/kg [3]: < 10%
–	CCc1cc(OC)cc2nc(-c3cccnc3N3CC[C@H](N(C)C)C3)oc(=O)c12 (as salt: salt) (hydrate or solvate) [Compound 132, 2-[2-((S)-3-Dimethylamino-pyrrolidin-1-yl)-pyridin-3-yl]-5-ethyl-7-methoxy-4H-benz[d][1,3]oxazin-4-one]	melting point: 150 to 159 °C
< 15 nM	O=c1oc(-c2cccnc2Oc2ccccc2)nc2cccc(C(F)(F)F)c12 [Compound 39]	inhibition in vivo at 10 mg/kg [3]: > 30%
–	CCc1cc(OC)cc2nc(-c3cccnc3N3CC[C@H](N(C)C)C3)oc(=O)c12 (as salt: methanesulfonate) (hydrate or solvate) [Compound 132, 2-[2-((S)-3-Dimethylamino-pyrrolidin-1-yl)-pyridin-3-yl]-5-ethyl-7-methoxy-4H-benz[d][1,3]oxazin-4-one]	melting point: 43 to 49 °C
16 to 60 nM	COCCN1CCN(c2ncccc2-c2nc3cccc(C)c3c(=O)o2)CC1 [Compound 44]	inhibition in vivo at 10 mg/kg [3]: 11 to 30%
61 to 150 nM	Cc1cccc2nc(-c3cccnc3N3CCC(N(C)C)C3)oc(=O)c12 (stereo not drawn) [Compound 46, 2-[2-(3-Dimethylamino-pyrrolidin-1-yl)-pyridin-3-yl]-5-methyl-4H-benz[d][1,3]oxazin-4-one]	inhibition in vivo at 10 mg/kg [3]: > 30%
–	CCc1cc(OC)cc2nc(-c3cccnc3N3CC[C@H](N(C)C)C3)oc(=O)c12 (as salt: tartrate) (hydrate or solvate) [Compound 132, 2-[2-((S)-3-Dimethylamino-pyrrolidin-1-yl)-pyridin-3-yl]-5-ethyl-7-methoxy-4H-benz[d][1,3]oxazin-4-one]	melting point: 148 to 155 °C and 144 to 145 °C
> 150 nM	Cc1cccc2nc(-c3cccnc3N3CCN(CC4CC4)CC3)oc(=O)c12 [Compound 54]	inhibition in vivo at 10 mg/kg [3]: > 30%
< 15 nM	CCc1cc(OC)cc2nc(-c3cccnc3N3CCC(N4CCOCC4)CC3)oc(=O)c12 [Compound 251]	–
–	CCc1cc(OC)cc2nc(-c3cccnc3N3CCN(CCOC)CC3)oc(=O)c12 [Compound 134]	% Inhibition in the ALI model [2]: B (B=11-30)
> 150 nM	COCCN(CCOC)c1ncccc1-c1nc2cccc(C)c2c(=O)o1 [Compound 55]	–
16 to 60 nM	CCCc1cc(OC)cc2nc(-c3cccnc3N(C)CCN(C)C)oc(=O)c12 [Compound 151]	–
16 to 60 nM	Cc1cccc2nc(-c3cccnc3N3CCC[C@H]3C(=O)OC(C)(C)C)oc(=O)c12 [Compound 32]	–
< 15 nM	CCc1cc(OC)cc2nc(-c3cccnc3N(C)CCN3CCCC3)oc(=O)c12 [Compound 237]	–
16 to 60 nM	CCc1cc(OC)cc2nc(-c3cccnc3N3CC4CC3CN4CC)oc(=O)c12 (stereo not drawn) [Compound 254]	–
16 to 60 nM	CCc1cc(OC)cc2nc(-c3cccnc3N(C)C3CCN(C)C3)oc(=O)c12 (stereo not drawn) [Compound 138]	–
61 to 150 nM	Cc1cccc2nc(-c3cccnc3OCCOCCOCCOCCO)oc(=O)c12 [Compound 57]	–

IC50 [1]	SMILES	further results
61 to 150 nM	COc1cc(C2CC2)c2c(=O)oc(-c3cccnc3N3CCN(CC4CC4)CC3)nc2c1 [Compound 166]	–
> 150 nM	Cc1cccc2nc(-c3cccnc3N3CCS(=O)(=O)CC3)oc(=O)c12 [Compound 62]	–
–	CCc1cc(OC)cc2nc(-c3cccnc3N3CC[C@H](N(C)C)C3)oc(=O)c12 (as salt: trifluoroacetate) [Compound 132, 2-[2-((S)-3-Dimethylamino-pyrrolidin-1-yl)-pyridin-3-yl]-5-ethyl-7-methoxy-4H-benz[d][1,3]oxazin-4-one]	melting point: 117 to 119 °C
> 150 nM	COc1cc(C(C)C)c2c(=O)oc(-c3cnn(C)c3N3CCN(C)CC3)nc2c1 [Compound 123]	–
< 15 nM	CCc1cc(OC)cc2nc(-c3cccnc3N3CC[C@H](N(CCO)CCO)C3)oc(=O)c12 [Compound 263]	–
< 15 nM	CCc1cc(OC)cc2nc(-c3cccnc3N3CC[C@@H](N4CCOCC4)C3)oc(=O)c12 [Compound 267]	–
> 150 nM	O=c1oc(-c2cccnc2-n2ccnc2)nc2cccc(Cl)c12 [Compound 71]	–
< 15 nM	CCc1cccc2nc(-c3cccnc3N3CCN(CCOC)CC3)oc(=O)c12 [Compound 89]	–
16 to 60 nM	COCCOCCOCCOCCOc1ncccc1-c1nc2cccc(C)c2c(=O)o1 [Compound 52, 2-[2-(2-{2-[2-(2-Methoxy-ethoxy)-ethoxy]-ethoxy}-ethoxy)-pyridin-3-yl]-5-methyl-4H-benz[d][1,3]oxazin-4-one]	inhibition in vivo at 10 mg/kg [3]: 11 to 30%
< 15 nM	CCc1cccc2nc(-c3cccnc3N3CCN(CCN4CCOCC4)CC3)oc(=O)c12 [Compound 152]	–
16 to 60 nM	Cc1cccc2nc(-c3cccnc3N3CC[C@@H](N(C)C)C3)oc(=O)c12 [Compound 178]	–
< 15 nM	COc1ccc(-c2nc3cccc(Cl)c3c(=O)o2)c(OC)n1 [Compound 38]	–
61 to 150 nM	COc1cc(C(C)C)c2c(=O)oc(-c3cccnc3N3CCN(CCN4CCOCC4)CC3)nc2c1 [Compound 114]	–
< 15 nM	CCc1cc(OC)cc2nc(-c3cccnc3N3CC4(C)CN(C)CC(C)(C3)C4O)oc(=O)c12 (stereo not drawn) [Compound 255]	–
< 15 nM	CCc1cc(OC)cc2nc(-c3cccnc3-n3ccnc3)oc(=O)c12 [Compound 106]	–
61 to 150 nM	Cc1cccc2nc(-c3cccnc3OCCOCCOCCOCCOc3ncccc3-c3nc4cccc(C)c4c(=O)o3)oc(=O)c12 [Compound 59]	–
< 15 nM	CCOC(=O)CN1CCN(c2ncccc2-c2nc3cc(OC)cc(CC)c3c(=O)o2)CC1 [Compound 196]	–
16 to 60 nM	CCc1cc(OC)cc2nc(-c3cccnc3N3C[C@H](CNC4CC4)[C@@H](C)C3)oc(=O)c12 [Compound 260]	–
< 15 nM	CCc1cccc2nc(-c3cccnc3-n3ccnc3)oc(=O)c12 [Compound 67]	–
< 15 nM	CCc1cccc2nc(-c3cccnc3N3CCC(N(C)C)C3)oc(=O)c12 (stereo not drawn) [Compound 85]	–
61 to 150 nM	Cc1cccc2nc(-c3cccnc3F)oc(=O)c12 [Compound 34]	–
< 15 nM	CCc1cc(OC)cc2nc(-c3cccnc3N3CCN(c4ccccn4)CC3)oc(=O)c12 [Compound 253]	–
< 15 nM	COc1ccc(-c2nc3cccc(C)c3c(=O)o2)c(OC)n1 [Compound 22]	–
< 15 nM	CCc1cc(OC)cc2nc(-c3cccnc3N3CC[C@H](N4CCOCC4)C3)oc(=O)c12 [Compound 262]	–
